Assay: xn = mol fraction of the nth substance listed

Nc1ccccc1 + c1ccccc1
Settings	viscosity [mPa·s]
298.15 K, 101 kPa, x1 = 0.1039	0.71
298.15 K, 101 kPa, x1 = 0.2282	0.83
298.15 K, 101 kPa, x1 = 0.3729	1.1
298.15 K, 101 kPa, x1 = 0.4341	1.211
298.15 K, 101 kPa, x1 = 0.5562	1.483
298.15 K, 101 kPa, x1 = 0.6562	1.803
298.15 K, 101 kPa, x1 = 0.7656	2.217
298.15 K, 101 kPa, x1 = 0.8661	2.767
298.15 K, 101 kPa, x1 = 0.9088	3.029
298.15 K, 101 kPa, x2 = 0.01	3.64
298.15 K, 101 kPa, x2 = 0.026	3.555
298.15 K, 101 kPa, x2 = 0.12	2.895
298.15 K, 101 kPa, x2 = 0.205	2.461
298.15 K, 101 kPa, x2 = 0.304	2.022
298.15 K, 101 kPa, x2 = 0.39	1.67
298.15 K, 101 kPa, x2 = 0.468	1.448
298.15 K, 101 kPa, x2 = 0.52	1.307
298.15 K, 101 kPa, x2 = 0.626	1.1
298.15 K, 101 kPa, x2 = 0.662	1.056
298.15 K, 101 kPa, x2 = 0.794	0.861
298.15 K, 101 kPa, x2 = 0.896	0.714
298.15 K, 101.33 kPa, x1 = 0.2	0.78
298.15 K, 101.33 kPa, x1 = 0.5	1.277
298.15 K, 101.33 kPa, x2 = 0.25	2.458
298.15 K, 101.33 kPa, x2 = 0.4	1.764
298.15 K, 101.33 kPa, x2 = 0.5	1.427
303.15 K, 101 kPa, x1 = 0.1039	0.657
303.15 K, 101 kPa, x1 = 0.2282	0.781
303.15 K, 101 kPa, x1 = 0.3729	0.965
303.15 K, 101 kPa, x1 = 0.4341	1.093
303.15 K, 101 kPa, x1 = 0.5562	1.371
303.15 K, 101 kPa, x1 = 0.6562	1.648
303.15 K, 101 kPa, x1 = 0.7656	1.991
303.15 K, 101 kPa, x1 = 0.8661	2.495
303.15 K, 101 kPa, x1 = 0.9088	2.745
308.15 K, 101 kPa, x1 = 0.1019	0.5981
308.15 K, 101 kPa, x1 = 0.1039	0.589
308.15 K, 101 kPa, x1 = 0.1492	0.6532
308.15 K, 101 kPa, x1 = 0.2282	0.736
308.15 K, 101 kPa, x1 = 0.2326	0.728
308.15 K, 101 kPa, x1 = 0.267	0.7545
308.15 K, 101 kPa, x1 = 0.3462	0.8563
308.15 K, 101 kPa, x1 = 0.3729	0.91
308.15 K, 101 kPa, x1 = 0.4341	1.012
308.15 K, 101 kPa, x1 = 0.4911	1.115
308.15 K, 101 kPa, x1 = 0.5562	1.224
308.15 K, 101 kPa, x1 = 0.6312	1.492
308.15 K, 101 kPa, x1 = 0.6562	1.476
308.15 K, 101 kPa, x1 = 0.68	1.59
308.15 K, 101 kPa, x1 = 0.7615	1.835
308.15 K, 101 kPa, x1 = 0.7656	1.79
308.15 K, 101 kPa, x1 = 0.8499	2.128
308.15 K, 101 kPa, x1 = 0.8661	2.179
308.15 K, 101 kPa, x1 = 0.9088	2.443
313.15 K, 101 kPa, x1 = 0.1039	0.562
313.15 K, 101 kPa, x1 = 0.2282	0.689
313.15 K, 101 kPa, x1 = 0.3729	0.842
313.15 K, 101 kPa, x1 = 0.4341	0.928
313.15 K, 101 kPa, x1 = 0.5562	1.124
313.15 K, 101 kPa, x1 = 0.6562	1.337
313.15 K, 101 kPa, x1 = 0.7656	1.587
313.15 K, 101 kPa, x1 = 0.8661	1.93
313.15 K, 101 kPa, x1 = 0.9088	2.103
323.15 K, 101.33 kPa, x1 = 0.2	0.541
323.15 K, 101.33 kPa, x1 = 0.5	0.792
